# Experimental data published in EP0677039B1, “CYCLOBUTANE DERIVATIVES AS INHIBITORS OF […] SYNTHETASE AND PROTEIN […]” (Abbott Laboratories, priority 1993, dated 1995).
# Biological target: T1, Rat liver microsomal squalene synthetase (Rattus norvegicus, UniProt Q02769)
# T1 construct: Rat liver microsome, the source of enzyme; from tissue; host or cells: rat liver microsomes
# T1 sequence (Q02769 1-416): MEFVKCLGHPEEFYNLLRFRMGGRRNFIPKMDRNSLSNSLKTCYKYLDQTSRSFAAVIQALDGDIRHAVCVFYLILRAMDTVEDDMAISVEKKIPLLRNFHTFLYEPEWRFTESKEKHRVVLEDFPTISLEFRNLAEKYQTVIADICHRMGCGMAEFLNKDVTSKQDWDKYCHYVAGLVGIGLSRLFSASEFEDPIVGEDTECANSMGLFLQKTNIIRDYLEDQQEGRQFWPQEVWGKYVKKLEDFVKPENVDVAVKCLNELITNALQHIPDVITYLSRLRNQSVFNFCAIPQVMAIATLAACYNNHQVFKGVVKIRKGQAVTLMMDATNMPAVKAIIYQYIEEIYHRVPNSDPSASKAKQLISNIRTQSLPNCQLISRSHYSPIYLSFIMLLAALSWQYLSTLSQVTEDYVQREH
# Test: In vitro inhibition of squalene synthetase
# Assay type: biochemical
# Conditions: 10 µM test compound; rat liver microsomes, labelled farnesyl pyrophosphate, 10 minutes at 37 °C; compared to controls with no test compound
# Protocol: In vitro inhibition of squalene synthetase may be measured by the following procedure. Rat liver microsomal squalene synthetase activity was measured using farnesyl pyrophosphate as a substrate and quantitating squalene synthesis using labelled farnesyl pyrophosphate and counting the squalene formed. Rat liver microsome, the source of enzyme, was prepared according to the method of Gillies, P. J., et al., Exp. Molc. Pathol. 44: 329-339 (1986), a modification of the procedure of Erickson, S. K., and Cooper, A. D., Metabolism, 29: 991-996 (1980). […] Oxygen was excluded from the closed incubation tube by degassing with nitrogen. The reaction was terminated by the addition of ethanolic KOH and after degassing with N2, the microsomal membranes were solubilized by heating at 60 °C for 30 minutes. The squalene was extracted into hexane, and the squalene was separated from all other radioactive molecules by passage over an activated alumina column. […] The per cent inhibition at a dose of 10 µM (or 1 µM) compared to controls with no test compound was determined. […]
row,Molecule,inhibition at 10 µM
1,"CCCN(Cc1ccc(Oc2ccccc2)s1)C(=O)C1C(C(=O)O)C(C(=O)O)C1C(=O)N(CCC)Cc1ccc(Oc2ccccc2)s1 (stereo not drawn) [Example 83B, (1α,2β,3β,4α)-1,2-Di[N-propyl-N-(5-phenoxythien-2-ylmethyl)aminocarbonyl]cyclobutane-3,4-dicarboxylic acid]",85%
2,"COc1ccc(CCN(Cc2ccc(Oc3ccccc3)cc2)C(=O)C2C(C(=O)O)C(C(=O)O)C2C(=O)N(CCc2ccc(OC)c(OC)c2)Cc2ccc(Oc3ccccc3)cc2)cc1OC (stereo not drawn) [Example 55, (1α,2β,3β,4α)-1,2-Di[N-(4-phenoxybenzyl)-N-(3,4-dimethoxyphenethyl)aminocarbonyl]cyclobutane-3,4-dicarboxylic acid]",78%
3,"CCCN(Cc1ccc(Oc2ccccc2)cc1)C(=O)C1C(CO)C(C(=O)O)C1C(=O)N(CCC)Cc1ccc(Oc2ccccc2)cc1 (stereo not drawn) [Example 70B, (1α,2β,3β,4α)-1,2-Di[N-propyl-N-(4-phenoxybenzyl)aminocarbonyl]-4-hydroxymethyl-cyclobutane-3-carboxylic acid]",80%
4,"CCCN(Cc1ccc(Oc2ccccc2)cc1)C(=O)[C@@H]1[C@H](C(=O)O)[C@@H](NS(=O)(=O)C(F)(F)F)[C@H]1C(=O)N(CCC)Cc1ccc(Oc2ccccc2)cc1 (relative stereo) [Example 100C, (1α,2β,3β,4α)-1,2-Di[N-propyl-N-(4-phenoxybenzyl)aminocarbonyl]-3-[(trifluoromethanesulfonyl)amino]cyclobutane-4-carboxylic Acid]",84%
5,"CCCN(Cc1ccc(Oc2ccccc2)cc1)C(=O)C1C(C=NO)C(C(=O)O)C1C(=O)N(CCC)Cc1ccc(Oc2ccccc2)cc1 (stereo not drawn) [Example 71C, (1α,2β,3β,4α)-1,2-Di[N-propyl-N-(4-phenoxybenzyl)aminocarbonyl]-4-[(hydroxyimino)methyl]-cyclobutane-3-carboxylic acid]",77%
6,"O=C(O)[C@H]1[C@H](C(=O)O)[C@H](C(=O)N(CCCc2ccccc2)Cc2ccc(Oc3ccccc3)cc2)[C@H]1C(=O)N(CCCc1ccccc1)Cc1ccc(Oc2ccccc2)cc1 [Example 57, (1α,2β,3β,4α)-1,2-Di[N-(4-phenoxybenzyl)-N-(3-phenyl-1-propyl)aminocarbonyl]cyclobutane-3,4-dicarboxylic acid]",64%
7,CCCN(Cc1ccc(Oc2ccco2)cc1)C(=O)C1C(C(=O)O)C(C(=O)O)C1C(=O)N(CCC)Cc1ccc(Oc2ccco2)cc1 (stereo not shown) [Example 84G],89%
8,"CCCN(Cc1ccc(Oc2cccc3ccccc23)cc1)C(=O)C1C(C(=O)O)C(C(=O)O)C1C(=O)N(CCC)Cc1ccc(Oc2cccc3ccccc23)cc1 (stereo not drawn) [Example 91, (1α,2β,3β,4α)-1,2-Di[N-propyl-N-(4-naphth-1-yloxybenzyl)aminocarbonyl]cyclobutane-3,4-dicarboxylic acid]",62%
9,"O=C(O)C1C(C(=O)O)C(C(=O)N(Cc2ccccc2)Cc2ccc(Cl)cc2)C1C(=O)N(Cc1ccccc1)Cc1ccc(Cl)cc1 (stereo not drawn) [Example 122B, (1α,2β,3β,4α)-1,2-Di[N-benzyl-N-(4-chlorobenzyl)aminocarbonyl]cyclobutane-3,4-dicarboxylic acid]",57%
10,"CCCN(Cc1ccc(Oc2ccccc2)cc1)C(=O)[C@@H]1[C@H](C(=O)O)[C@@H](C(=O)OC)[C@H]1C(=O)N(CCC)Cc1ccc(Oc2ccccc2)cc1 (relative stereo) [Example 95, (1α,2β,3β,4α)-1,2-Di[N-propyl-N-(4-phenoxybenzyl)aminocarbonyl]-3-(methoxycarbonyl)cyclobutane-4-carboxylic Acid]",78%
11,"COC(=O)CN(Cc1ccc(Oc2ccccc2)cc1)C(=O)[C@H]1[C@@H](C(=O)O)[C@H](C(=O)O)[C@@H]1C(=O)N(CC(=O)OC)Cc1ccc(Oc2ccccc2)cc1 [Example 59, (1α,2β,3β,4α)-1,2-Di[N-(4-phenoxybenzyl)-N-(methoxycarbonylmethyl)aminocarbonyl]cyclobutane-3,4-dicarboxylic acid]",50%
12,"CCCN(Cc1ccc(Oc2ccccc2)cc1)C(=O)[C@@H]1[C@H](C(N)=O)[C@@H](C(=O)O)[C@H]1C(=O)N(CCC)Cc1ccc(Oc2ccccc2)cc1 (relative stereo) [Example 99B, (1α,2β,3β,4α)-3-(Amino)carbonyl-1,2-di[N-propyl-N-(4-phenoxybenzyl)aminocarbonyl]cyclobutane-4-carboxylic Acid]",80%
13,"CCCN(Cc1ccc(Oc2ccccc2)cc1)C(=O)[C@H]1[C@@H](C(=O)O)[C@H](C(=O)O)[C@@H]1C(=O)N(C)CC/C=C(\C)CCC=C(C)C [Example 62B, (1α,2β,3β,4α)-1-[N-Propyl-N-(4-phenoxybenzyl)aminocarbonyl]-2-[N-methyl-N-(homogeranyl)aminocarbonyl]cyclobutane-3,4-dicarboxylic acid]",83%
14,"CCCN(Cc1ccc(Oc2ccccc2)cc1)C(=O)[C@@H]1[C@H](C(=O)O)[C@@H](C(=O)NO)[C@H]1C(=O)N(CCC)Cc1ccc(Oc2ccccc2)cc1 (relative stereo) [Example 98C, (1α,2β,3β,4α)-1,2-Di[N-propyl-N-(4-phenoxybenzyl)aminocarbonyl]-3-[(hydroxyamino)carbonyl]cyclobutane-4-carboxylic Acid]",84%

# Same assay, conditions: values marked * in Table 1: 1 µM test compound; rat liver microsomes, labelled farnesyl pyrophosphate, 10 minutes at 37 °C
row,Molecule,inhibition at 1 µM
1,"CCCN(Cc1ccc(Oc2ccccc2)cc1)C(=O)C1C(C(=O)O)C(C(=O)NC(CO)C(=O)O)C1C(=O)N(CCC)Cc1ccc(Oc2ccccc2)cc1 (single isomer, unassigned) [Example 110A, (1α,2β,3β,4α)-1,2-Di[N-propyl-N-(4-phenoxybenzyl)aminocarbonyl]cyclobutane-3.4-dicarboxylic acid mono-Serine amide]",73%
2,"CCCN(Cc1ccc(Oc2ccccc2)cc1)C(=O)C1C(C(=O)O)C(C(=O)Nc2nnn[nH]2)C1C(=O)N(CCC)Cc1ccc(Oc2ccccc2)cc1 (stereo not drawn) [Example 92B, (1α,2β,3β,4a)-1,2-Di[N-propyl-N-(4-phenoxybenzyl)aminocarbonyl]cyclobutane-3-[N-(5-tetrazolyl)]carboxamide-4-carboxylic acid]",80%
3,"CCCN(Cc1ccc(Oc2ccccc2)cc1)C(=S)C1C(C(=O)O)C(C(=O)O)C1C(=S)N(CCC)Cc1ccc(Oc2ccccc2)cc1 (stereo not drawn) [Example 130B, (1α,2β,3β,4α)-1,2-Di[N-propyl-N-(4-phenoxybenzyl)aminothiocarbonyl]cyclobutane-3,4-dicarboxylic acid]",48%
4,"CCCN(Cc1ccc(Oc2ccccc2)cc1)C(=O)C1C(C(=O)O)C(C(=O)N2CCCC2C(=O)O)C1C(=O)N(CCC)Cc1ccc(Oc2ccccc2)cc1 (stereo not drawn) [Example 107, (1α,2β,3β,4α)-1,2-Di[N-propyl-N-(4-phenoxybenzyl)aminocarbonyl]cyclobutane-3,4-dicarboxylic acid mono-d,l-Proline amide]",75%
5,"O=C(O)C1C(C(=O)O)C(C(=O)N(Cc2ccc(Oc3ccccc3)cc2)Cc2cccs2)C1C(=O)N(Cc1ccc(Oc2ccccc2)cc1)Cc1cccs1 (stereo not drawn) [Example 45, (1α,2β,3β,4α)-1,2-Di[N-(thien-2-ylmethyl)-N-(4-phenoxybenzyl)aminocarbonyl]cyclobutane-3,4-dicarboxylic acid]",50%
6,"CCCN(Cc1ccc(Sc2ccccc2)cc1)C(=O)C1C(C(=O)O)C(C(=O)O)C1C(=O)N(CCC)Cc1ccc(Sc2ccccc2)cc1 (stereo not drawn) [Example 68B, (1α,2β,3β,4α)-1,2-Di[N-propyl-N-(4-phenylthiobenzyl)aminocarbonyl]cyclobutane-3,4-dicarboxylic acid]",84%
7,CCCN(Cc1ccc(Oc2ccccc2)cc1)C(=O)C1C(NC(=O)C(=O)O)C(C(=O)O)C1C(=O)N(CCC)Cc1ccc(Oc2ccccc2)cc1 (stereo not shown) [Example 74D],55%
8,CCCN(Cc1ccc(Oc2ccccc2)cc1)C(=O)C1C(CCC(=O)O)C(C(=O)O)C1C(=O)N(CCC)Cc1ccc(Oc2ccccc2)cc1 (stereo not shown) [Example 77B],51%
9,"CCCN(Cc1ccc(Oc2ccccc2)cc1)C(=O)C1C(C(=O)O)C(C(=O)NC(CC(=O)O)C(=O)O)C1C(=O)N(CCC)Cc1ccc(Oc2ccccc2)cc1 (stereo not drawn) [Example 109, (1α,2β,3β,4α)-1,2-Di[N-propyl-N-(4-phenoxybenzyl)aminocarbonyl]cyclobutane-3,4-dicarboxylic acid mono-d,l-Aspartic acid amide]",78%
10,C[C@H](c1ccccc1)N(Cc1ccc(Oc2ccccc2)cc1)C(=O)[C@H]1[C@@H](C(=O)O)[C@H](C(=O)O)[C@@H]1C(=O)N(Cc1ccc(Oc2ccccc2)cc1)[C@H](C)c1ccccc1 [Example 35],59%

# Same assay, conditions: values marked * in Table 1: 1 µM test compound; rat liver microsomes, labelled farnesyl pyrophosphate, 10 minutes at 37 °C; 1 µM
row,Molecule,% Inhibition at 1 µM
1,"(1α,2β,3β,4α)-1,2-Di[N-propyl-N-(4-phenoxybenzyl)aminocarbonyl]cyclobutane-3-phenoxycarbonyl-4-carboxylic acid [Example 105B]",57* %
